Assay results published in publication PMC8880385 (Pharmaceuticals, 2022).
Where two headings read alike, the source gives them in different places.

Experiments:
[1] = tested on: O. volvulus third-stage larvae (L3); assay: O. volvulus L3 to L4 molting assay; type: cell-based, Onchocerca volvulus; settings: Day 6, read-out: O. volvulus L3 Inhibition of Molting Day 6 IC50
Description: O. volvulus, like other nematodes, undergo molts during their larval stages as they develop into the adult form. […] The molting assay tests the potency of compounds to prevent the L3 from molting to the L4 stage in vitro. […] Briefly, 5–10 Ov L3 collected from infected Simulium blackflies and frozen in liquid nitrogen were thawed and plated in 96-well plates seeded with 0.2 × 10^6 normal human peripheral blood mononuclear cells (PBMCs) in 100 µL complete medium containing 20% heat inactivated FBS and treated with compounds at 10, 3, 1, 0.3, 0.1 and 0.03 μM. L3 exposed to 0.5% DMSO or complete media only were run as negative controls. Larvae were incubated at 37 °C with 5% CO2, and molting was determined by examining the wells for highly motile L4 larvae and empty L3 casts after 6 days in culture.

O. ochengi adult males = assay: O. ochengi adult male motility assay; type: cell-based; settings: Onchocerca ochengi, 120 h; read-out: O. ochengi Adult Males Inhibition of Motility Day 5 IC50
Text: As humans are the only hosts for O. volvulus which are unavailable for screening, drug discovery relies on the surrogate filarial parasites Brugia spp. and cattle Onchocerca spp. Prioritized compounds from the Brugia worm screens were further tested with female and male adult O. ochengi as well as O. ochengi and L. loa mf.
For these assays, O. ochengi adults were extracted from the subcutaneous nodules of infected cow skins purchased from the local slaughterhouse (Douala, Littoral Region, Cameroon) and incubated in 4 mL complete culture media comprised of RPMI-1640 (Sigma-Aldrich), 5% newborn calf serum, 200 units/mL penicillin, 200 μg/mL streptomycin and 2.5 μg/mL amphotericin B (Sigma-Aldrich) in 12-well plates overnight to validate sterility prior to the assays. Four to eight O. ochengi adult masses were treated individually the following day with a serial dilution of each compound, and controls were treated with 1% DMSO. While in culture, the male worms normally egress from the nodules into the surrounding media and thus can be monitored in parallel for motility. The O. ochengi adult masses were incubated at 37 °C with 5% CO2 for the duration of the assay. Male motility within each well was visually scored every day and over 5 days after compound addition, and female viability within the nodules was assessed by MTT after 7 days as previously described. The O. ochengi adult masses containing female worms were individually placed in wells of a 48-well plate with 0.5 mL of 0.5 mg/mL MTT in PBS and incubated at 37 °C for 30 min. Female viability was visually rated by the degree of formazan production (live worms have blue coloration) in the female worm within the treated nodule versus control worm masses. […] Prism 4.0 for Windows was used to calculate IC50s.

Loa loa mf = assay: Loa loa microfilariae motility counter-screen; type: cell-based; settings: Loa loa, 120 h, Day 5
Description: To assess the effects of the compounds on O. ochengi mf, the mf were harvested from infected cow skin and cultured (10–15 mf per well) in 100 µL media in 96-well plates with a confluent feeder layer of monkey kidney epithelial cells (MK2) as previously described. […] All compounds were also counter-screened with L. loa mf collected from infected individuals with approval from the University of Buea (IRB approval # 964-19). Mf were separated from blood cells using a Percoll gradient as previously described and set up for assays (10–15 mf per well).

[2] = Gerbil liver microsome stability assay; type: in vitro ADME
Description: Microsomal stability was tested using 1 µM of each test compound in a 96-well plate containing 0.5 mg/mL gerbil liver microsomes, 1 mM NADPH and/or UDPGA with alamethicin in a buffer of 100 mM potassium phosphate with 3 mM magnesium chloride at pH 7.4. Verapamil was used as a positive control. Reactions were incubated at 37 °C, and 100% acetonitrile with 0.1% formic acid was added at 0, 15, 30 and 60 min timepoints to stop the reaction. Samples were then separated over a Waters Atlantis T3 dC18 reverse phase HPLC column with 0.1% formic acid in water and 0.1% formic acid in acetonitrile. Samples were analyzed using an AB Sciex API 4000 LC–MS/MS.

in vitro = settings: dog, MDCK-MDR1
Description: Permeability assays were conducted using 5 µM of each test compound with digoxin as a control. […] electrical resistance was used to verify the integrity of the MDCK-MDR1 monolayer. After compound addition, plates were incubated at 37 °C with 5% CO2 for 1 h. Samples were analyzed by LC–MS/MS and net flux ratio was calculated using basal-to-apical and apical-to-basal permeability.

Brugia pahangi = assay: Brugia pahangi/gerbil model of infection: worm and peritoneal mf counts at necropsy; type: in vivo; settings: gerbil, 1 mg/kg IP once a day for 5 days, necropsy 13 weeks post-first dose; mean (SEM)
Description: Male Mongolian gerbils 50–60 g, 5–7 weeks in age (Meriones unguiculatus, Charles River Laboratories International, Inc., Wilmington, MA, USA) were injected intraperitoneally (IP) with 200 third-larval stage B. pahangi and treated a minimum of 3 months later when larvae developed into adult worms.
Animals were given IP doses of 1 mg/kg once a day for 5 days based on in vivo studies by Jones et al., 2009 [14] and gerbil PK analyses. Compounds are light sensitive and were shielded from light during formulation. Animals were necropsied 13 weeks post-first dose, and peritoneal cavities were washed with 100 mL of PBS to collect adult worms and mf that had been released from female worms. Adult worms were separated by sex, counted, and processed for subsequent analyses. Mf from the peritoneal cavities were quantified by mixing peritoneal wash 9:1 (v/v) with 0.04% methylene blue:water and counted using an inverted microscope.
Worm burden, peritoneal mf counts, overnight mf sheds and qPCR data were analyzed using a Kruskal–Wallis test followed by Dunn’s multiple comparison. To determine significant differences in embryograms, a two-way ANOVA was conducted with a Dunnett’s multiple comparisons test, and significance levels were determined based on comparisons with vehicle treated animals. All statistical analyses were determined using Prism 8 version 8.2.0(272).

[3] = tested on: Brugia pahangi adult females; assay: Transmission electron microscopy of B. pahangi adult females from treated gerbils; type: in vivo; settings: females from gerbils treated with 1 mg/kg
Description: B. pahangi adult females recovered from gerbils treated with 1 mg/kg THP and analog 06 were prepared as above except worms were cut into approximately 5 mm long pieces taken from the center of the worm. Pieces were washed for one hour in 0.1 M sodium cacodylate followed by post-fixation in 1% osmium tetroxide for 1 h and again washed in the same buffer for another hour. Sample pieces were dehydrated using an increasing concentration of ethanol and resin (Durcupan, by Fluka) and transitioned using propylene oxide. Samples were left overnight in pure resin at 4 °C. Samples pieces were embedded using Beem capsules (Electron Microscopy Sciences) and cured at 60 °C overnight. All reagents were purchased from Electron Microscopy Sciences.
Blocks were trimmed and sectioned using a diamond knife on a Sorvall MT-6000 ultramicrotome, collected on formvar coated 1 mm slot grids and contrasted using uranyl acetate and lead citrate. Grids were imaged on a Philips CM100 transmission electron microscope at 80 kV and images were collected using a Gatan Orius imaging system.

Cc1ccc2c(ccc(/C=C/c3c(C)nn(-c4ccccc4)c3C)[n+]2C)c1.[I-] [Analog 06, 2-[(E)-2-(3,5-dimethyl-1-phenyl-1H-pyrazol-4-yl)ethenyl]-1,6-dimethylquinolin-1-ium iodide]
IC50 [1]: 460 nM | IC50 ([1]; Onchocerca volvulus, 144 h): 458 nM | IC50 (O. ochengi adult males): 2750 nM | inhibition at 10 µM (Loa loa mf): 88% | CLint ([2]; gerbil liver microsomes): 0.933 µL/min/mg Protein | half-life at 1 µM ([2]; pH 7.4, 1 µM compound, 0.5 mg/mL microsomes, read-out: Gerbil Liver Microsome T1/2): 24.7 h | Papp A→B (in vitro): 0.5 ×10⁻⁶ cm/s | Papp B→A (in vitro): 12.1 ×10⁻⁶ cm/s | Adult worms per animal (Brugia pahangi): 31.3 (11.8) | Female worms per animal (Brugia pahangi): 15.9 (5.7) | Male worms per animal (Brugia pahangi): 15.4 (6.1) | Mf per animal (peritoneal cavity) (Brugia pahangi): 915,000 (263,235) | Ultrastructure of gonads / developing microfilariae of female worms (TEM) ([3]; 1 mg/kg): more severe effect on the gonads | Ultrastructure of gonads / developing microfilariae of female worms (TEM) ([3]; listed as 06, 1 mg/kg): abnormal ultrastructural phenotypes
